These results are taken from patent US9395368B2, “Methods, agents and peptides for inducing an immune response to matrix metalloproteinase-2 expressing tumors” (New York University, priority 2010, dated 2016).

In this experiment the test system is MMP-2-specific CD4+ T cell clones. In words: Epitope specificity of MMP-2-specific CD4+ T cell clones with individual peptides (ELISA). The following applies: individual peptides 2 μM; TNFα, IL-4 and IFNγ production. The class given is cell-based, human. Here is the method: (A) MMP-2-specific CD4^+ T cell clones were generated and characterized as described in Experimental Procedures. Clone HD9828/52 is shown as a representative example. Epitope specificities were assessed after overnight stimulation with individual peptides (2 μM). IFNγ, TNFα and IL-4 release was measured by ELISA. (B) All MMP-2-specific CD4^+ T cell clones were characterized by staining for CD4, CD8 and TCR Vβ chain expression. Clone HD9828/52 is shown as a representative example. (C) To establish HLA class-II isotype restriction, CD4^+ T cell clones were stimulated by corresponding peptides in the absence or presence of blocking mAb (10 μg/mL) for HLA-DP, HLA-DQ or HLA-DR and IFNγ release was measured by ELISA. (D) Purified CD4^+/CD25^− cells were stimulated for 12 days by autologous DCs incubated with MMP-2 protein (10 μM) and subsequently washed. MMP-2-specific CD4^+ T cells were detected by intracellular staining of IFNγ, TNFα and IL-4 after 6 hours of stimulation with MMP-2 peptide pool (2 μM). Numbers in the upper right quadrants are the percentages of each population.
All 19 MMP-2-specific CD4^+ T cell clones were characterized for epitope specificity by testing clone responses to every peptide separately. TCR Vβ expression was assessed by surface staining HLA class-II isotype restriction was determined by using blocking mAb to HLA-DP, -DQ and -DR. Results listed for the T cell clone HD9828/MC1/52 are shown in FIG. 1 and FIG. 11, and are highlighted in bold italics.
T Cell culture, stimulation and priming. Peripheral blood mononuclear cells (PBMCs) were purified from healthy donor-(HD) or cord blood donor-(CB) derived buffy coats (New York Blood Center) by Ficoll-Paque Plus (GE Healthcare) centrifugation. CD4^+/CD25^− cells were enriched (>90%) by magnetic cell sorting (Miltenyi Biotec) and primed/stimulated for 12-15 days either with irradiated (35Gy) autologous CD4^− cells or with autologous mature DCs in IMDM (GIBCO) supplemented with 1 mM HEPES (Life Technologies), 2 mM L-glutamine (Sigma), […] (Sigma) and 5% heat inactivated pooled human serum (PHS; Valley Biomedical) in the presence of rhIL-2 (10 UI/mL) and IL7 (5 ng/mL) (R&D Systems). Antigen presenting cells (CD4^− cells or DCs) were loaded either with peptides (2 μM) or with the MMP-2 protein (10 μg/mL) for 2 and 5 h, respectively. DCs were matured using the TLR3 agonist poly(I:C) at 5 μg/mL/10^6 DCs (Amersham). To generate T cell clones, we originally relied on our published methodology (Godefroy et al., 2006; Godefroy et al., 2007; the entire contents of each of which is incorporated herein by reference), involving enrichment of IFNγ-secreting cells upon short-term culture and peptide stimulation to generate MMP-2 responsive clones. Briefly, CD4^+ T cells were stimulated by CD4^− cells irradiated and pulsed with peptides for 12 days in the presence of rhIL-2 and rhIL-7. CD4^+ T cells were then restimulated with peptides for 3 hours before capturing IFNγ-secreting specific cells using a bispecific antibody coating T cells and capturing produced IFNγ. Positive cells were purified magnetically before being cloned. Although MMP-2-specific cells could be isolated, it was realized that IFNγ secretion was marginal compared to their secretion of IL-4 and TNFα. IFNγ-secreting cells in response to MMP-2 peptide pool were enriched by cytokine-guided magnetic cell sorting (Miltenyi Biotec) as described above and cloned the following day by limiting dilution in the presence of irradiated allogeneic PBMCs, 1 μg/mL phytohemagglutinin-L (Sigma) and 150 UI/mL rhIL-2. Tumor infiltrating lymphocytes (TILs) were provided by Pr. F. Jotereau and B. Dréno. They were obtained from tumor-invaded lymph nodes of melanoma patients (stage Mb) and expanded ex vivo. These patients received autologous TILs and IL-2 infusions in a clinical trial (Labarriere et al., 2002). […]
Regarding “RIHDGEADIMINFGRWEHGD (listed as Homo sapiens) [P161-180]”, the “recognition by CD4+ T cell clones” value is listed as “recognized”. The entry for “VAPKTDKELAVQYLNTFYGC (listed as Homo sapiens) [P41-60]” is “recognized”; for “GCLLSHAAAAPSPIIKFPGD (listed as Homo sapiens) [P21-40]” it is “recognized”. To “FFKGAYYLKLENQSLKSVKF (listed as Homo sapiens) [P631-650]” belongs “recognized”; to “GYPKPLTSLGLPPDVQRVDA (listed as Homo sapiens) [P551-570]”, “recognized”.

Turning to “MEALMARGALTGPLRALCLL (listed as Homo sapiens) [P1-20]”, the “recognition by CD4+ T cell clones” value is listed as “recognized”.

Turning to “VDLQGGGHSYFFKGAYYLKL (listed as Homo sapiens) [P621-640]”, the “recognition by CD4+ T cell clones” value is listed as “recognized”. To “GFPKLIADAWNAIPDNLDAV (listed as Homo sapiens) [P601-620]” belongs “recognized”.

For the sequence “AFNWSKNKKTYIFAGDKFWR (listed as Homo sapiens) [P571-590]”, the “recognition by CD4+ T cell clones” value is reported as “recognized”. The entry for “TGPLRALCLLGCLLSHAAAA (listed as Homo sapiens) [P11-30]” is “recognized”; for “ESCTSAGRSDGKMWCATTAN (listed as Homo sapiens) [P361-380]” it is “recognized”.
